Measured values published in patent publication US20250213563A1, “SUBSTITUTED PYRIMIDIN-4(3H)-ONES FOR USE IN TREATING CANCER” (NAVIRE PHARMA, INC., priority 2021, published 2025).
“Also recorded” adds a separate entry of the source.

How the values were obtained:
[1] = target: T1, phosphatase domain of human SHP2 (Homo sapiens, UniProt Q06124); experiment: SHP2 enzymatic assay (DiFMUP), phosphatase domain; assay type: biochemical; settings: at up to 50 μM
T1 construct: phosphatase domain of human SHP2 (amino acid Ala237-Ile529); 6xHis (TEV site) (N, cleaved yes); made in house; host or cells: E. coli BL21 (DE3)
T1 sequence (Q06124 237-529): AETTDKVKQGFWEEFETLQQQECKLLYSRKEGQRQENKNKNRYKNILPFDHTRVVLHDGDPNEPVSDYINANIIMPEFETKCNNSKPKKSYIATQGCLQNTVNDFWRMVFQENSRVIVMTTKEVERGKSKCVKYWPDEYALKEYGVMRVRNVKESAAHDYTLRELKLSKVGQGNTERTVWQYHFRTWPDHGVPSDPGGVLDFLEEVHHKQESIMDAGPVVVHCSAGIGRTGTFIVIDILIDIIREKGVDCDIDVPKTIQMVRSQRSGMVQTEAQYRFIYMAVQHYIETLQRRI
Protocol: Protein purification: The recombinant DNA for full-length human SHP2 (amino acid 1-597) or the phosphatase domain of human SHP2 (amino acid Ala237-Ile529) was cloned into a pET30 vector (Sigma #69909-3), which was modified to contain a TEV protease site after the N-terminal 6×His tag. The expression vector was transformed into E. coli BL21 (DE3) (NEB #C2527H). The protein was expressed and purified by the following procedure. Bacterial cells from a 50 mL overnight culture were inoculated in 6 L of terrific broth media. Once the E. coli culture reached an OD600 of 0.7, the temperature was lowered to 18° C. and recombinant protein expression was induced by the addition of 0.5 mM IPTG. After overnight incubation, the cells were harvested by centrifugation at […] for 45 min in a Sorvall Lynx 6000 (Thermo Fisher) centrifuge with F9-6×1000 LEX rotor. The cell pellets were stored at −80° C. until purification. […] The final product was 98% pure as determined by SDS-PAGE. The concentration of SHP2 protein was determined from the absorbance at 280 nm wavelength, using the calculated molar extinction coefficient for SHP2 protein of 72770 M^−1 cm^−1.
SHP2 enzymatic assay: Phosphatase activity of full-length human SHP2 wild-type enzyme or SHP2 phosphatase domain was measured using fluorogenic 6,8-difluoro-4-methylumbelliferyl phosphate (DiFMUP; Molecular Probes #D6567) as the substrate. […]

[2] = target: T2, Hematopoietic Progenitor Kinase 1 (HPK1) (Homo sapiens, UniProt Q92918); experiment: KINOMEscan competition binding and Kd dose-response
T2 construct: purchased DiscoverX (KINOMEscan platform)
T2 sequence (Q92918 whole entry): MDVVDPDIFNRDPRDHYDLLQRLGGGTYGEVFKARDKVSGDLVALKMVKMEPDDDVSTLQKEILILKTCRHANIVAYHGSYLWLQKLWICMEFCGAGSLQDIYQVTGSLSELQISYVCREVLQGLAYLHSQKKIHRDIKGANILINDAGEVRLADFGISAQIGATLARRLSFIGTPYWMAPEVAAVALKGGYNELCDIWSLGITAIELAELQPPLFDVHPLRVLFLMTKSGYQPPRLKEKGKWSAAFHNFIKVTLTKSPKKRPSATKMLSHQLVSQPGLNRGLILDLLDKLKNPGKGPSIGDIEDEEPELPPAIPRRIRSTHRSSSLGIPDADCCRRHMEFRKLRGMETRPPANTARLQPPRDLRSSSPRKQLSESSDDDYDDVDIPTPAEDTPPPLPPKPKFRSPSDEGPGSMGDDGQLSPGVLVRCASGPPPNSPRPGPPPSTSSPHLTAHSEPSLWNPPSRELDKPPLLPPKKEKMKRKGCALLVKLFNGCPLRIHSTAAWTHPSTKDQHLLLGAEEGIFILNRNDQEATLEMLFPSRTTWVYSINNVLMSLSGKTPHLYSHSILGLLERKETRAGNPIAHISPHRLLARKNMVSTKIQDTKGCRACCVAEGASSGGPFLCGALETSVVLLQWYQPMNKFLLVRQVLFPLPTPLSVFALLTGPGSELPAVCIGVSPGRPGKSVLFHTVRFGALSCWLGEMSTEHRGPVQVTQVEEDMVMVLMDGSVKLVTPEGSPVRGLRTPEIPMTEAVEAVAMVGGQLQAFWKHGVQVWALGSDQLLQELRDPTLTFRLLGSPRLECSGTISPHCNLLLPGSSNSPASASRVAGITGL
Protocol: Activity of Compound (10b) (1 μM) was assessed against a panel of 419 human kinases (including a set of disease-relevant mutant variants). Assays were conducted using the KINOMEscan™ platform from DiscoverX which measures compound interaction with kinases using active site-directed competition binding assays. Displacement of ligand binding to the kinase by <35% of the control value is considered significant. Of the 419 kinases tested, only 4 kinases reached this level of displacement: Protein kinase C eta (PRKCH), 34% control; Large tumor suppressor kinase 1 (LATS1), 32% control; General control nonderepressible 2 kinase (GCN2), 21% control; and Hematopoietic Progenitor Kinase 1 (HPK1), 4.4% control.
HPK1 is a hematopoietic cell-restricted serine/threonine kinase and is not expressed in any major organs. HPK1 has been implicated in activation of c-Jun N-terminal kinases (JNK) and genetic disruption of HPK1 is reported to enhance the antitumor immune response of T cells and dendritic cells (Hu et al 1996; Sawasdikosol et al 2012).

In the case of `Cc1c(N2CCC3(CC2)CO[C@@H](C)[C@H]3N)nc(C)n(-c2cccc(Cl)c2Cl)c1=O` (atropisomer, axis not shown; (Ra)) [Compound (10b), 6-((3S,4S)-4-amino-3-methyl-2-oxa-8-azaspiro[4.5]decan-8-yl)-3-(Ra)-(2,3-dichlorophenyl)-2,5-dimethylpyrimidin-4(3H)-one], the “suppression of enzymatic activity of SHP2 phosphatase domain” value [1] is reported as “did not suppress; also recorded: does not suppress”, the ligand binding, % of control at 1 µM ([2]; 1 μM) is reported as 4.4% and the Kd ([2]; dose-response curve) is reported as 9.8 µM.
